# Read-outs that look alike come from different tables or passages of the source.
# Experiments:
# leucémie P 388 = assay: animal or person; format: in vivo, souris hybrides CDF 1; conditions: for Variation pondérale en g: in vivo, ip; for Nombre de survivants: survivors at J 40
# Excerpt: (§1) L'activité antitumorale a été testée in vivo sur différentes tumeurs selon le protocole général suivant:
# (§2) Toutes les souris mâles ou femelles sont inoculées par voie intrapéritonéale au jour Jo avec une quantité déterminée de cellules tumorales viables, variable selon la tumeur.
# (§3) Elles sont ensuite réparties en différents lots. Chaque lot correspondant aux animaux traités par le produit à tester à une dose déterminée est composé de 10 souris. Dans ce cas, le produit à tester est dissous dans l'eau distillée et il est administré, pendant n jours (J₁-Jn) variables selon le protocole choisi, par voie intrapéritonéale à raison de 0,1 ml par 10 g de poids des souris traitées, les doses du produit administré étant précisées dans les tableaux ci-dessous.
# (§4) Le lot "contrôle négatif", correspondant aux animaux qui ne sont pas traités par un produit, comprend 2 √N animaux, N étant égal au nombre total de souris traitées par un produit.
# (§5) Enfin, tous les essais sont conduits parallèlement à l'étude d'un lot appelé "contrôle positif" de 10 animaux qui est traité par une molécule active, variable selon le protocole choisi, dans les mêmes conditions que les lots traités par le produit à tester, afin de valider l'essai.
# (§6) L'activité antitumorale est évaluée en considé-rant l'augmentation du temps de survie des animaux traités par rapport à celui des animaux du lot "contrôle négatif" selon la formule : [formula]
# (§7) Un composé est considéré comme étant actif lorsque la valeur du rapport T/C est égale ou supérieure à 125 % selon le protocole retenu. Il est toxique lorsque cette valeur est égale ou inférieure à 85 %. Le produit est également considéré comme toxique lorsque la variation pondérale, exprimée en grammes et calculée par la formule : Poids moyen du lot mesuré au jour 5 -poids moyen du même lot au jour 1 est égale ou inférieure à - 4 g.
# a) Test de la leucémie P 388 (GERAN et al., Cancer Chemother, 1972, 2, 07-57).
# Les essais sont effectués avec des souris hybrides CDF 1 inoculées par voie intrapéritonéale avec 10⁶ cellules leucémiques de la lignée P 388. Le composé à tester est administré pendant 5 jours (J1-J5). Le contrôle positif du test est le 5-fluorouracile qui est administré dans les mêmes conditions. Le nombre d'animaux survivants est évalué au jour J 40. Un composé est considéré comme étant actif lorsque le rapport T/C est supérieur à 127 %.
# [1] = test system: lignée tumorale leucémie L 1210; assay: In vitro cytotoxic activity on L 1210 leukemia cell culture (inhibition of cell proliferation); format: cell-based; conditions: L 1210 culture in exponential growth, 37°C, after 48 hours of contact, read-out: ID 50 (the source's name)
# Description: 1) In vitro : (PAOLETTI et al., Chem. Biol. Interaction, 1979, 25, 45-58).
# L'activité cytotoxique des composés de l'invention a été évaluée par des essais in vitro. Ces essais consistent à ajouter des concentrations croissantes du composé à tester à une culture cellulaire de la lignée tumorale leucémie L 1210 en phase exponentielle de croissance. Les cellules sont incubées à 37°C dans une étuve à CO₂ et comptées toutes les 24 heures. Le calcul de l'ID₅₀ (concentration du produit exprimée en micromole 1⁻¹ qui inhibe la prolifération cellulaire à 50 p. 100) est effectuée après 48 heures de contact. Ainsi déterminées les ID₅₀ des composés de l'invention sont rassemblées dans le tableau ci-après.
# mélanome B 16 = assay: In vivo antitumour activity, B 16 melanoma test; design: species or system souris hybrides BDF₁; conditions: for Jour médian de survie / T/C % / Nombre de survivants: B 16 melanoma; for Nombre de survivants: survivors at J 60; for Variation pondérale en g: in vivo, ip
# Excerpt: as §1, §2, §3, §4, §5, §6
# Le produit est également considéré comme toxique lorsque la variation pondérale, exprimée en grammes et calculée par la formule : Poids moyen du lot mesuré au jour 5 -poids moyen du même lot au jour 1 est égale ou inférieure à - 4 g.
# Les essais sont effectués avec des souris hybrides BDF₁ inoculées avec 0,5 ml d'un homogénat de mélanome B 16 réalisé à partir de 1 g de tumeur dans 10 ml de sérum physiologique. Le composé à tester est administré pendant 9 jours (J₁-J₉).Le contrôle positif du test est le Cis-Platine administré dans les mêmes conditions. Le nombre d'animaux survivants est évalué au jour J 60.
# [2] = test system: souris consanguines DBA₂ saines; assay: Acute toxicity, single intraperitoneal injection in healthy mice, mortality at day 7; format: in vivo; conditions: single i.p. injection, 50 mg/kg
# leucémie L 1210 = assay: In vivo antitumour activity, L 1210 leukemia test; design: species or system souris hybrides CDF₁; conditions: for Nombre de survivants: survivors at J 30
# Excerpt: as §1, §2, §3, §4, §5, §6, §7
# b) Test de la leucémie L 1210 (GERAN et al., Cancer Chemother, 1972, 2, 07-57).
# Les essais sont effectués avec des souris hybrides CDF₁ inoculées avec 10⁵ cellules leucémiques de la lignée L 1210. Le composé à tester est administré pendant 5 jours (J₁-J₅).Le contrôle positif du test est le 5-fluorouracile administré dans les mêmes conditions. Le nombre d'animaux survivants est évalué au jour J 30. Un composé est considéré comme étant actif lorsque le rapport T/C est supérieur ou égal à 125 %.
# [3] = Mus musculus, P388, ip, P 388, CDF 1 mice, 5 mg/kg i.p. J1-J5, read-out: T/C %
# [4] = BDF₁ mice, 0,625 mg/kg i.p. J1-J9
# [5] = BDF₁ mice, 1,25 mg/kg i.p. J1-J9
# [6] = BDF₁ mice, 2,5 mg/kg i.p. J1-J9
# [7] = L 1210, CDF₁ mice, 5 mg/kg i.p. J1-J5
# [8] = L 1210, CDF₁ mice, 10 mg/kg i.p. J1-J5
# [9] = L 1210, CDF₁ mice, 20 mg/kg i.p. J1-J5
# [10] = L 1210, CDF₁ mice, 30 mg/kg i.p. J1-J5
# [11] = L 1210, CDF₁ mice, 1,25 mg/kg i.p. J1-J5
# [12] = L 1210, CDF₁ mice, 2,5 mg/kg i.p. J1-J5
# [13] = L 1210, CDF₁ mice, 7,5 mg/kg i.p. J1-J5
# [14] = P 388, CDF 1 mice, 5 mg/kg i.p. J1-J5
# [15] = P 388, CDF 1 mice, 2,5 mg/kg i.p. J1-J5
compound,measurement,setting,value
"CCN(CC)CCCNc1nc2ccccc2c2[nH]c3ccc(O)cc3c12 [Dérivé N°11, (diéthylamino-3 propylamino)-6 hydroxy-8 11-H indolo[3,2-c]quinoléine]",response vs control in vivo at 5 mg/kg,leucémie P 388; [3],154%
same,response vs control in vivo at 1.25 mg/kg,"leucémie P 388; Mus musculus, P388, ip, P 388, CDF 1 mice, 1,25 mg/kg i.p. J1-J5, read-out: T/C %",142%
same,response vs control in vivo at 2.5 mg/kg,"leucémie P 388; Mus musculus, P388, ip, P 388, CDF 1 mice, 2,5 mg/kg i.p. J1-J5, read-out: T/C %",152%
same,response vs control in vivo at 15 mg/kg,"leucémie P 388; Mus musculus, P388, ip, P 388, CDF 1 mice, 15,0 mg/kg i.p. J1-J5, read-out: T/C %",146%
same,Variation pondérale en g,leucémie P 388; 5 mg/kg,"+ 0,6 g"
same,IC50,"[1]; Mus musculus, L1210",130 nM
same,Jour médian de survie,"mélanome B 16; BDF₁ mice, 5 mg/kg i.p. J1-J9",31
same,T/C %,"mélanome B 16; BDF₁ mice, 5 mg/kg i.p. J1-J9",132%
same,Nombre de survivants,"mélanome B 16; BDF₁ mice, 5 mg/kg i.p. J1-J9",0
same,Jour médian de survie,mélanome B 16; [4],29
same,T/C %,mélanome B 16; [4],123%
same,Nombre de survivants,mélanome B 16; [4],0
same,Jour médian de survie,mélanome B 16; [5],40
same,T/C %,mélanome B 16; [5],170%
same,Nombre de survivants,mélanome B 16; [5],1
same,Jour médian de survie,mélanome B 16; [6],38
same,T/C %,mélanome B 16; [6],162%
same,Nombre de survivants,mélanome B 16; [6],2
same,mortalité évaluée au septième jour après l'administration,[2],aucune mortalité
same,Jour médian de survie,leucémie L 1210; [7],"14,25"
same,T/C %,leucémie L 1210; [7],160%
same,Nombre de survivants,leucémie L 1210; [7],0
same,Jour médian de survie,leucémie L 1210; [8],"12,25"
same,T/C %,leucémie L 1210; [8],138%
same,Nombre de survivants,leucémie L 1210; [8],0
same,Jour médian de survie,leucémie L 1210; [9],"11,7"
same,T/C %,leucémie L 1210; [9],131%
same,Nombre de survivants,leucémie L 1210; [9],0
same,Jour médian de survie,leucémie L 1210; [10],"8,3"
same,T/C %,leucémie L 1210; [10],93%
same,Nombre de survivants,leucémie L 1210; [10],0
same,Jour médian de survie,leucémie L 1210; [11],"10,9"
same,T/C %,leucémie L 1210; [11],122%
same,Nombre de survivants,leucémie L 1210; [11],0
same,Jour médian de survie,leucémie L 1210; [12],"12,75"
same,T/C %,leucémie L 1210; [12],143%
same,Nombre de survivants,leucémie L 1210; [12],0
same,Jour médian de survie,leucémie L 1210; [13],"12,3"
same,T/C %,leucémie L 1210; [13],138%
same,Nombre de survivants,leucémie L 1210; [13],0
CCN(CC)CCCNc1nc2ccccc2c2c1c1cc(O)ccc1n2C [Dérivé N°3],response vs control in vivo at 5 mg/kg,leucémie P 388; [3],155%
same,response vs control in vivo at 10 mg/kg,"leucémie P 388; Mus musculus, P388, ip, P 388, CDF 1 mice, 10 mg/kg i.p. J1-J5, read-out: T/C %",147%
same,response vs control in vivo at 20 mg/kg,"leucémie P 388; Mus musculus, P388, ip, P 388, CDF 1 mice, 20 mg/kg i.p. J1-J5, read-out: T/C %",149%
same,Nombre de survivants,leucémie P 388; [14],0
same,Nombre de survivants,"leucémie P 388; P 388, CDF 1 mice, 10 mg/kg i.p. J1-J5",0
same,Nombre de survivants,"leucémie P 388; P 388, CDF 1 mice, 20 mg/kg i.p. J1-J5",0
same,Variation pondérale en g,leucémie P 388; 5 mg/kg,"+ 1,0 g"
same,Variation pondérale en g,leucémie P 388; 10 mg/kg,"- 0,6 g"
same,Variation pondérale en g,leucémie P 388; 20 mg/kg,"- 2,2 g"
same,IC50,"[1]; Mus musculus, L1210",60 nM
same,Jour médian de survie,mélanome B 16; [6],36
same,T/C %,mélanome B 16; [6],138%
same,Nombre de survivants,mélanome B 16; [6],0
same,mortalité évaluée au septième jour après l'administration,[2],aucune mortalité
same,Jour médian de survie,leucémie L 1210; [7],"10,6"
same,T/C %,leucémie L 1210; [7],129%
same,Nombre de survivants,leucémie L 1210; [7],0
same,Jour médian de survie,leucémie L 1210; [8],"11,3"
same,T/C %,leucémie L 1210; [8],138%
same,Nombre de survivants,leucémie L 1210; [8],0
"(éthylamino-3 propylamino)-6 hydroxy-8 11-H indolo[3,2-c]quinoléine [Dérivé N°14]",Jour médian de survie,leucémie P 388; [14],"14,0"
same,T/C %,leucémie P 388; [14],127%
same,Nombre de survivants,leucémie P 388; [14],0
same,Jour médian de survie,leucémie P 388; [15],"14,0"
same,T/C %,leucémie P 388; [15],127%
same,Nombre de survivants,leucémie P 388; [15],0
same,Variation pondérale en g,leucémie P 388; 5 mg/kg,"+ 1,7 g"
same,IC50,[1],1400 nM
same,Jour médian de survie,"mélanome B 16; BDF₁ mice, 5 mg/kg i.p. J1-J9","34,25"
same,T/C %,"mélanome B 16; BDF₁ mice, 5 mg/kg i.p. J1-J9",123%
same,Jour médian de survie,"mélanome B 16; BDF₁ mice, 20 mg/kg i.p. J1-J9","38,75"
same,T/C %,"mélanome B 16; BDF₁ mice, 20 mg/kg i.p. J1-J9",139%
same,Nombre de survivants,"mélanome B 16; BDF₁ mice, 20 mg/kg i.p. J1-J9",0
same,Variation pondérale en g,mélanome B 16; 5 mg/kg,"- 0,2 g"
same,Variation pondérale en g,mélanome B 16; 20 mg/kg,"- 1,3 g"
same,mortalité évaluée au septième jour après l'administration,[2],aucune mortalité

# — patent EP0226508A1, “Indolo[3,2-c]quinoline derivatives, process for their preparation and their anti-tumour activity” (priority 1985, dated 1987)
